The conditions of data set [1]: vendor product list; cited from earlier work.
Data set [2] has as its target DNase, a nuclease isolated from bovine pancreas (Bos taurus, UniProt P00639). Conditions: for DNase enzymatic activity: 100 μM EDTA.
For a further data set, the target named is Taq (Thermus aquaticus, UniProt P19821). The experiment in a line: Endpoint PCR (HugI, 1.2 kb genomic target) with and without EGTA, agarose gel. The class given is biochemical. Conditions: 5 mM EGTA, 5-10 mM Mg, compared to reactions without EGTA. Here is the method:
An amplification experiment was performed using a test system that is known to be prone to produce non-specific side products. A genomic DNA sequence of 1.2 kb was the target sequence. Primers HugA and HugB were used.
Reactions with and without EGTA were performed in parallel. In set A, the magnesium concentration was varied in 1 mM steps, start and end point were 5 and 10 mM respectively. In set B, the start point was 0.5 mM and the end point was 4 mM Mg. The setup is described in Table 2.
The amplification program was as follows (Table 3):
35 cycles were performed.

The nature of data set [3]: pH-dependency of the binding constants of chelating agents. The class given is physicochemical. Conditions: worked out from known pK values from literature (FIG. 1). Here is the method: Tris buffer is routinely used in PCR buffers. At room temperature the pH of a Tris based PCR buffer is 8.7. […] This means that at 95° C. the pH value is 6.6. In order to select a chelating agent for PCR experiments, the pH-dependency of the binding constants of three different chelating agents, NTA; EDTA and EGTA, was investigated. Known pK values from literature for every chelating agent were used to determine the pH dependency of the complex formation (FIG. 1).

Data set [4] deals with T1, chemically inactivated Taq DNA polymerase (Thermus aquaticus, UniProt P19821). Description: Amplification of bisulphite-treated DNA in the presence of different EGTA concentrations (residual activity of chemically inactivated Taq, Ct and HRM melting curves). Format: biochemical. The text has this: The following experiments employed a system to detect the formation of primer dimers in a PCR reaction mixture using residual active Taq polymerase molecules. Herein, bisulphite-treated DNA is used as a template. As a consequence of the bisulphite treatment, which entails the chemical modification of non-methylated cytosines to uracil), said template only consists of three bases. Since bisulphite treatment only works when using single stranded DNA, the majority of DNA after completion of said bisulphite treatment is single stranded. Primers that are used for amplification of such DNA sequences are characterized by reduced complexity since they only consist of three bases.
T1 sequence (P19821 whole entry): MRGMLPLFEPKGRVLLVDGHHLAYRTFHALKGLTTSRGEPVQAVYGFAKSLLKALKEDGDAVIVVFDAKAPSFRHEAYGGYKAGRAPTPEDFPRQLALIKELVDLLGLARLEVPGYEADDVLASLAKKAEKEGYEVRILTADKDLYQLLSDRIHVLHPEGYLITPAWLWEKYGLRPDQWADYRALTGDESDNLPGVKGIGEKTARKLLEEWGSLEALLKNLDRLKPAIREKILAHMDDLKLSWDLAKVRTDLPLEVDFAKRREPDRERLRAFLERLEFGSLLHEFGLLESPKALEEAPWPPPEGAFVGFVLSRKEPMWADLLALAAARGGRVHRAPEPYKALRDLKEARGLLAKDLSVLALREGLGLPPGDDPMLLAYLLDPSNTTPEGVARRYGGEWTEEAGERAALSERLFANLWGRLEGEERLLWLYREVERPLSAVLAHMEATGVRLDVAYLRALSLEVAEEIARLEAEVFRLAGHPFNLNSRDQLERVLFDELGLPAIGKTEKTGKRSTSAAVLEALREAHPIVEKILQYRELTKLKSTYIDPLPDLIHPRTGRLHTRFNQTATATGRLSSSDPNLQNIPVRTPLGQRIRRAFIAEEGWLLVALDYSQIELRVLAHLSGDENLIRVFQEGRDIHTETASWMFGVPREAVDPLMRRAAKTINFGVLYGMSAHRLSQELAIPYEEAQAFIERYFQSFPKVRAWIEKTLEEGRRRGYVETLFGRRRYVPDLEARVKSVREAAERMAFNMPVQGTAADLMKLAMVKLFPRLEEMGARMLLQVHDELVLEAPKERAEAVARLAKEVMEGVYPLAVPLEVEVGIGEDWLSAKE
Genomic DNA was propagated using the Qiagen REPLI g Midi Kit according to the manufacturer's protocol. Subsequently, 1 μg of said genomic DNA was used in 10 independent reactions wherein the DNA was subjected to bisulphite treatment using the EpiTect Bisulfite Kit followed by purification. The resulting DNA of each reaction was pooled and used in the subsequent amplification reactions.
The final EGTA concentration was between 0.25 and 10 mM.
One set of samples consisting of two reactions was incubated on ice for 120 min, whereas the other set of samples also consisting of two reactions was incubated at room temperature for 120 min. Subsequently both sets of samples were analyzed using the Rotor-Gene Q 5plex HRM System.

Data set [5] concerns the target T1, chemically inactivated Taq DNA polymerase. The experiment in a line: Amplification of bisulphite-treated DNA in the presence of EGTA and different magnesium concentrations. Format: biochemical. Conditions: for Ct / Ct Average: 5 mM EGTA. As for the experimental part: In the follow-up experiment said primers and said bisulphite-treated DNA were used in amplification reactions wherein the magnesium dependency was analyzed.
The final concentration of EGTA was 5 mM. The HRM master mix was supplemented with 0.1 0.6 mM magnesium.
Two sets of reactions consisting of duplicates were used in the amplification experiment. One set of samples was incubated on ice for 120 min, whereas the other set of samples was incubated at room temperature for 120 min. Subsequently the samples were analyzed using the Rotor-Gene Q 5plex HRM System.

The conditions of data set [6]: for pH of Tris based PCR buffer: room temperature.
Setting [7] is: 0.25 mM EGTA, room temperature 120 min.
The mark [8] stands for this setting: 0.5 mM EGTA, room temperature 120 min.
Setting [9] is: 0.75 mM EGTA, room temperature 120 min.
[10] abbreviates: 1 mM EGTA, room temperature 120 min.
[11] abbreviates: 1.5 mM EGTA, room temperature 120 min.
Setting [12] is: 2 mM EGTA, room temperature 120 min.
Where [13] appears, read: 4 mM EGTA, room temperature 120 min.
The mark [14] stands for this setting: 10 mM EGTA, room temperature 120 min.
Setting [15] is: 0 mM MgCl2 added, on ice 120 min.
Where [16] appears, read: 0 mM MgCl2 added, room temperature 120 min.
Setting [17] is: 0.1 mM MgCl2, room temperature 120 min.
The mark [18] stands for this setting: 0.2 mM MgCl2, room temperature 120 min.
Where [19] appears, read: 0.3 mM MgCl2, room temperature 120 min.
[20] abbreviates: 0.4 mM MgCl2, room temperature 120 min.
Setting [21] is: 0.5 mM MgCl2, room temperature 120 min.
[22] abbreviates: 0.6 mM MgCl2, room temperature 120 min.

SMILES strings stand for the structures. Values joined by “and” are separate entries in the source; they are usually repeats but may differ in a detail not shown here. Equal values may be shown once. “Also recorded” adds a separate entry of the source. Where a name gives a salt, the structure may show the parent alone. Read-outs that look alike come from different tables or passages of the source.

DNase, a nuclease isolated from bovine pancreas, sequence (P00639 23-282): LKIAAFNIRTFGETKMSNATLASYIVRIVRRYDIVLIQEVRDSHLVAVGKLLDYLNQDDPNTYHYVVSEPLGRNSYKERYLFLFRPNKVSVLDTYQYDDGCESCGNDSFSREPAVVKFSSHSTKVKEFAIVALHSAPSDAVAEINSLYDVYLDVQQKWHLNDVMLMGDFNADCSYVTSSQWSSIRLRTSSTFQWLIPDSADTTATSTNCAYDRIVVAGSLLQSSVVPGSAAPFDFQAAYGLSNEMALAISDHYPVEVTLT
Taq, sequence (P19821 whole entry): as the sequence (P19821 whole entry) above

On to `NC(=O)CNCCS(=O)(=O)O` [Buffer 1, ACES], for which, in data set [1], the pKa is given as 6.80.

With `O=S(=O)(O)CCN(CCO)CCO` [Buffer 2, BES], in data set [1], the pKa is given as 7.10.

Consider `OCC(CO)(CO)NCCCNC(CO)(CO)CO` [Buffer 4, BIS-TRIS propane], for which, in data set [1], the pKa was 6.80.

For `O=S(=O)(O)CCCN1CCN(CCO)CC1` [Buffer 5, EPPS], the pKa in data set [1] was 8.00.

In the case of `O=S(=O)(O)CCN1CCN(CCO)CC1` [Buffer 7, HEPES], the pKa in data set [1] is 7.50.

With `O=S(=O)(O)CCN1CCN(CCO)CC1` [Buffer 8, HEPES sodium salt], the pKa in data set [1] is reported as 7.50.

Take `O=S(=O)(O)CCN1CCN(CCS(=O)(=O)O)CC1` [Buffer 17, PIPES]: in data set [1], the pKa is given as 6.80.

For `O=S(=O)(O)CCCNC(CO)(CO)CO` [Buffer 22, TAPS], in data set [1], the pKa was 8.40.

`O=S(=O)([O-])CCCNC(CO)(CO)CO.[Na+]` [Buffer 23, TAPS sodium salt]: the pKa in data set [1] is on record as 8.40.

As for `O=S(=O)(O)CCNC(CO)(CO)CO` [Buffer 24, TES], the pKa in data set [1] is on record as 7.50.

`O=C(O)CN(CCN(CC(=O)O)CC(=O)O)CC(=O)O` [EDTA, ethylene di amine tetra acetic acid]: the DNase enzymatic activity result was “restoring enzymatic activity” in data set [2] (42° C.) and “largely reduced enzymatic activity” in data set [2] (on ice, 1, 0.5, 0.1 U DNase).

Take `O=C(O)CN(CCOCCOCCN(CC(=O)O)CC(=O)O)CC(=O)O` [EGTA, ethylene glycol bis(amino ethyl) N, N′-tetra acetic acid]: on Taq, the “specificity of PCR (side products on agarose gel)” value is recorded as “more specific as of having less side products; also recorded: results in specific PCR product”. Moreover, the “correlation between pH value and binding constant” value in data set [3] is “strong correlation between pH value and binding constant”. Also, the DNase activity result in data set [2] (100 μM EGTA, 42° C.) is “largely restored DNase activity”. Moreover, the “DNA degradation by DNase” value in data set [2] (100 μM EGTA, on ice, 0.01, 0.1 and 1 U DNase, 5 and 15 min) was “almost complete inhibition of degradation”; in data set [2] (100 μM EGTA, on ice, 1 U DNase for 15 min, compared to the sample without EGTA), “degradation is significantly reduced”. For the same molecule, the Ct was 25.34 and 25.51 in data set [4] (0.25 mM EGTA, on ice 120 min); 25.2 and 25.42 in data set [4] (setting [7]); 25.53 and 25.62 in data set [4] (0.5 mM EGTA, on ice 120 min); 25.55 and 25.47 in data set [4] (setting [8]); 25.78 and 25.88 in data set [4] (0.75 mM EGTA, on ice 120 min); 25.91 and 25.8 in data set [4] (setting [9]). Moreover, the Ct in data set [4] (1 mM EGTA, on ice 120 min) is 26.59 and 26.61; in data set [4] (setting [10]), 26.47 and 26.5; in data set [4] (1.5 mM EGTA, on ice 120 min), 28.17 and 28.21; in data set [4] (setting [11]), 27.76 and 27.88; in data set [4] (2 mM EGTA, on ice 120 min), 30.16 and 28.53; in data set [4] (setting [12]), 29.9 and 29.71. Moreover, the Ct is 38.37 and 38.14 in data set [4] (4 mM EGTA, on ice 120 min); 37.32 and 37.02 in data set [4] (setting [13]); 35.18 and 34 in data set [4] (setting [14]); 28.74 and 28.89 in data set [5] (setting [15]); 28.86 and 28.67 in data set [5] (setting [16]); 27.82 and 27.79 in data set [5] (0.1 mM MgCl2, on ice 120 min). Besides, the Ct in data set [5] (setting [17]) is 27.53 and 27.71; in data set [5] (0.2 mM MgCl2, on ice 120 min), 26.85 and 27.39; in data set [5] (setting [18]), 26.69 and 27.27; in data set [5] (0.3 mM MgCl2, on ice 120 min), 26.25 and 26.51; in data set [5] (setting [19]), 26.14 and 26.64; in data set [5] (0.4 mM MgCl2, on ice 120 min), 26.01 and 26.14. The Ct was 26.06 and 26.24 in data set [5] (setting [20]); 25.81 and 25.89 in data set [5] (0.5 mM MgCl2, on ice 120 min); 25.82 and 25.86 in data set [5] (setting [21]); 25.61 and 25.56 in data set [5] (0.6 mM MgCl2, on ice 120 min); 25.55 and 25.49 in data set [5] (setting [22]). In addition, the “Ct Average” value in data set [4] (0.25 mM EGTA, on ice 120 min) stood at 25.43; in data set [4] (setting [7]), 25.31; in data set [4] (0.5 mM EGTA, on ice 120 min), 25.58; in data set [4] (setting [8]), 25.51; in data set [4] (0.75 mM EGTA, on ice 120 min), 25.83; in data set [4] (setting [9]) it was 25.86. The “Ct Average” value was 26.55 in data set [4] (1 mM EGTA, on ice 120 min); 26.49 in data set [4] (setting [10]); 28.19 in data set [4] (1.5 mM EGTA, on ice 120 min); 27.82 in data set [4] (setting [11]); 29.35 in data set [4] (2 mM EGTA, on ice 120 min); 29.81 in data set [4] (setting [12]). Moreover, the “Ct Average” value is 38.26 in data set [4] (4 mM EGTA, on ice 120 min); 37.13 in data set [4] (setting [13]); 34.59 in data set [4] (setting [14]); 28.82 in data set [5] (setting [15]); 28.77 in data set [5] (setting [16]); 27.81 in data set [5] (0.1 mM MgCl2, on ice 120 min). The “Ct Average” value is 27.62 in data set [5] (setting [17]); 27.12 in data set [5] (0.2 mM MgCl2, on ice 120 min); 26.98 in data set [5] (setting [18]); 26.38 in data set [5] (0.3 mM MgCl2, on ice 120 min); 26.39 in data set [5] (setting [19]); 26.08 in data set [5] (0.4 mM MgCl2, on ice 120 min). For the same molecule, the “Ct Average” value in data set [5] (setting [20]) came out at 26.15; in data set [5] (0.5 mM MgCl2, on ice 120 min), 25.85; in data set [5] (setting [21]), 25.84; in data set [5] (0.6 mM MgCl2, on ice 120 min), 25.59; in data set [5] (setting [22]) it was 25.52. The success of amplification result in data set [4] (EGTA concentrations exceeded 2 mM) is given as “successful amplification was prevented”. In addition, in data set [4] (EGTA up to a final concentration of 0.75 mM), the “specificity of amplification and effect on Ct” value is recorded as “increase of specificity without affecting the Ct values”. Also, the specificity of amplification result in data set [5] (EGTA up to a final concentration of 5 mM) is given as “increased specificity”.

With `NC(CO)(CO)CO` [Tris], the “pH of Tris buffer” value in data set [6] (95° C.) is recorded as 6.6. Further, the “pH of Tris based PCR buffer” value was 8.7 in data set [6] and “around 8.7” in data set [6] (listed as Tris buffer).

The values are drawn from patent publication US11519025B2, “Cation chelator hot start” (priority 2014, dated 2022).
